Experimental data reported in patent US20160009693A1, “HERBICIDAL COMPOUNDS” (SYNGENTA LIMITED, priority 2013, published 2016).

Legend:
Type in all cases: in vivo
Details in all cases: applied at 1000 g/h, evaluated after 13 days
Solanum nigrum (SOLNI) [1] = assay: Herbicidal glasshouse test, post-emergence, SOLNI
Setaria faberi (SETFA) [2] = assay: Herbicidal glasshouse test, post-emergence, SETFA
Outline: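 Setaria faberi seeds were sown in standard soil in pots and grown for 8 days in a glasshouse at 24/16° C. day/night, 14 hours light and 65% humidity. The seedlings were then sprayed post-emergence with the active ingredient in acetone/water (50:50) containing 0.5% Tween 20. Afterwards they were kept under the same conditions, watered twice daily, and scored for percentage damage on a five point scale.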

[3] = tested on: Alopecurus myosuroides (ALOMY); assay: Herbicidal glasshouse test, pre-emergence, ALOMY
Solanum nigrum (SOLNI) [4] = assay: Herbicidal glasshouse test, pre-emergence, SOLNI
Outline: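 Seeds of Solanum nigrum were sown in pots of standard soil and kept one day in a glasshouse at 24/16° C. day/night, 14 hours light and 65% humidity. For the pre-emergence treatment they were then sprayed with an aqueous solution of the active ingredient formulated in acetone/water (50:50) containing 0.5% Tween 20. Plant damage was rated after 13 days.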

[5] = tested on: Amaranthus retoflexus (AMARE); assay: Herbicidal glasshouse test, pre-emergence, AMARE
Outline: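 Amaranthus retoflexus seeds were sown in pots of standard soil and kept one day in a glasshouse at 24/16° C. (day/night), 14 hours light and 65% humidity. They were then sprayed pre-emergence with the active ingredient in acetone/water (50:50) containing 0.5% Tween 20. Plants grew under the same conditions, watered twice daily, and percentage damage was scored after 13 days.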

Setaria faberi (SETFA) [6] = assay: Herbicidal glasshouse test, pre-emergence, SETFA
[7] = tested on: Amaranthus retoflexus (AMARE); assay: Herbicidal glasshouse test, post-emergence, AMARE
Outline: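 Amaranthus retoflexus (AMARE) seeds were sown in pots of standard soil and grown in a glasshouse at 24/16° C. day/night, 14 hours light and 65% humidity for 8 days. The plants were then sprayed post-emergence with an aqueous solution of the active ingredient in acetone/water (50:50) with 0.5% Tween 20. Damage was scored after 13 days.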

[8] = tested on: Alopecurus myosuroides (ALOMY); assay: Herbicidal glasshouse test, post-emergence, ALOMY
[9] = tested on: Ipomoea hederacea (IPOHE); assay: Herbicidal glasshouse test, post-emergence, IPOHE
[10] = tested on: Echinochloa crus-galli (ECHCG); assay: Herbicidal glasshouse test, post-emergence, ECHCG
Outline: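 Echinochloa crus-galli (ECHCG) seeds were sown in standard soil in pots and grown for 8 days in a glasshouse at 24/16° C. day/night, 14 hours light and 65% humidity. The young plants were then sprayed post-emergence with the active ingredient in acetone / water (50:50) containing 0.5% Tween 20. Damage was scored after 13 days.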

[11] = tested on: Ipomoea hederacea (IPOHE); assay: Herbicidal glasshouse test, pre-emergence, IPOHE
[12] = tested on: Echinochloa crus-galli (ECHCG); assay: Herbicidal glasshouse test, pre-emergence, ECHCG
Outline: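 Echinochloa crus-galli seeds were sown in standard soil in pots and grown for one day in a glasshouse at 24/16° C. day/night, 14 hours light and 65% humidity. Pre-emergence spraying used an aqueous solution of the active ingredient in acetone/water (50:50) with 0.5% Tween 20. Damage was scored after 13 days on a five point scale.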

| SMILES | POST Application SOLNI, percentage damage (five point scale) (Solanum nigrum (SOLNI) [1]) | POST Application SETFA, percentage damage (five point scale) (Setaria faberi (SETFA) [2]) | PRE Application ALOMY, percentage damage (five point scale) [3] | PRE Application SOLNI, percentage damage (five point scale) (Solanum nigrum (SOLNI) [4]) | PRE Application AMARE, percentage damage (five point scale) [5] | PRE Application SETFA, percentage damage (five point scale) (Setaria faberi (SETFA) [6]) | POST Application AMARE, percentage damage (five point scale) [7] | POST Application ALOMY, percentage damage (five point scale) [8] | POST Application IPOHE, percentage damage (five point scale) [9] | POST Application ECHCG, percentage damage (five point scale) [10] | PRE Application IPOHE, percentage damage (five point scale) [11] | PRE Application ECHCG, percentage damage (five point scale) [12] |
| --- | --- | --- | --- | --- | --- | --- | --- | --- | --- | --- | --- | --- |
| Cn1nnnc1NC(=O)c1nn(C)c(=O)n(-c2cc(C(F)(F)F)cc(C(F)(F)F)c2)c1=O [Compound 1.032] | 5 (5=80-100%) | 4 (4=60-79%) | 5 (5=80-100%) | 5 (5=80-100%) | 5 (5=80-100%) | 5 (5=80-100%) | 5 (5=80-100%) | 5 (5=80-100%) | 5 (5=80-100%) | 5 (5=80-100%) | 4 (4=60-79%) | 5 (5=80-100%) |
| Cn1nnnc1NC(=O)c1nn(C)c(=O)n(-c2cccc(Br)c2)c1=O [Compound 1.033] | 5 (5=80-100%) | 5 (5=80-100%) | 5 (5=80-100%) | 5 (5=80-100%) | 5 (5=80-100%) | 5 (5=80-100%) | 5 (5=80-100%) | 5 (5=80-100%) | 5 (5=80-100%) | 5 (5=80-100%) | 5 (5=80-100%) | 5 (5=80-100%) |
| CCOc1cccc(-n2c(=O)c(C(=O)Nc3nnnn3C)nn(C)c2=O)c1 [Compound 1.034] | 5 (5=80-100%) | 5 (5=80-100%) | 5 (5=80-100%) | 5 (5=80-100%) | 5 (5=80-100%) | 5 (5=80-100%) | 5 (5=80-100%) | 5 (5=80-100%) | 5 (5=80-100%) | 5 (5=80-100%) | 5 (5=80-100%) | 5 (5=80-100%) |
| Cn1nnnc1NC(=O)c1nn(C)c(=O)n(-c2cc(Cl)cc(Cl)c2)c1=O [Compound 1.035] | 5 (5=80-100%) | 5 (5=80-100%) | 5 (5=80-100%) | 5 (5=80-100%) | 5 (5=80-100%) | 4 (4=60-79%) | 5 (5=80-100%) | 5 (5=80-100%) | 5 (5=80-100%) | 5 (5=80-100%) | 5 (5=80-100%) | 5 (5=80-100%) |
| Cc1cc(-n2c(=O)c(C(=O)Nc3nnnn3C)nn(C)c2=O)ccc1F [Compound 1.037] | 5 (5=80-100%) | 5 (5=80-100%) | 5 (5=80-100%) | 5 (5=80-100%) | 5 (5=80-100%) | 5 (5=80-100%) | 5 (5=80-100%) | 5 (5=80-100%) | 5 (5=80-100%) | 5 (5=80-100%) | 5 (5=80-100%) | 5 (5=80-100%) |
| Cc1cc(C)cc(-n2c(=O)c(C(=O)Nc3nnnn3C)nn(C)c2=O)c1 [Compound 1.038] | 5 (5=80-100%) | 5 (5=80-100%) | 5 (5=80-100%) | 5 (5=80-100%) | 5 (5=80-100%) | 5 (5=80-100%) | 5 (5=80-100%) | 5 (5=80-100%) | 5 (5=80-100%) | 5 (5=80-100%) | 5 (5=80-100%) | 5 (5=80-100%) |
| Cn1nnnc1NC(=O)c1nn(C)c(=O)n(-c2ccc(OC(F)(F)F)cc2)c1=O [Compound 1.039] | 5 (5=80-100%) | 5 (5=80-100%) | 5 (5=80-100%) | 5 (5=80-100%) | 5 (5=80-100%) | 5 (5=80-100%) | 5 (5=80-100%) | 5 (5=80-100%) | 5 (5=80-100%) | 5 (5=80-100%) | 5 (5=80-100%) | 5 (5=80-100%) |
| Cn1nnnc1NC(=O)c1nn(C)c(=O)n(-c2ccc(C(C)(C)C)cc2)c1=O [Compound 1.040] | 5 (5=80-100%) | 5 (5=80-100%) | 5 (5=80-100%) | 5 (5=80-100%) | 5 (5=80-100%) | 5 (5=80-100%) | 5 (5=80-100%) | 4 (4=60-79%) | 4 (4=60-79%) | 5 (5=80-100%) | 3 (3=40-59%) | 5 (5=80-100%) |
| Cn1nnnc1NC(=O)c1nn(C)c(=O)n(-c2ccc(Cl)c(Cl)c2)c1=O [Compound 1.041] | 5 (5=80-100%) | 5 (5=80-100%) | 5 (5=80-100%) | 5 (5=80-100%) | 5 (5=80-100%) | 4 (4=60-79%) | 5 (5=80-100%) | 5 (5=80-100%) | 5 (5=80-100%) | 5 (5=80-100%) | 5 (5=80-100%) | 5 (5=80-100%) |
